Assay results from patent US12590062B2, “PD-1/PD-L1 inhibitors” (Gilead Sciences, Inc., priority 2017, dated 2026).

What was measured:
PD-1/PD-L1 interaction = molecular target: T1, PD-1/PD-L1 interaction (Homo sapiens, UniProt Q9NZQ7); assay: PD-1/PD-L1 NFAT reporter co-culture assay; format: cell-based; conditions: Jurkat PD-1 NFAT-luciferase cells co-cultured with aAPC-PD-L1 CHO cells, 6 hrs at 37° C.; read-out: EC50 NFAT Luciferase
T1 construct: expressed in transfected cells; host or cells: CHO cells (aAPC-PD-L1) co-cultured with Jurkat cells overexpressing PD-1 and an NFAT-luciferase reporter
How it was run: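 First, CHO cells displaying anti-CD3 antibody and PD-L1 were plated overnight. Next, compound-treated PD-1 Jurkat NFAT-luciferase reporter cells in 2% FBS RPMI were added for 6 h at 37 °C. Finally, ONE-Glo luminescence was read and EC50 values fitted with a four-parameter equation.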

PD-1/PD-L1 = PD-1/PD-L1 (Homo sapiens, UniProt Q9NZQ7); assay: PD-1/PD-L1 biochemical protein-protein interaction assay (ALPHA); format: binding; conditions: 0.3 nM His tagged PD-L1, 2.5 nM biotinylated Fc-PD-1, 60 minutes at 25° C., read-out: IC50 PD-L1-PD-1 Alpha IC50-mono PD-L1-fcP-D1
How it was run: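 ALPHA bead proximity assay of extracellular domains: 0.3 nM His-PD-L1 with 2.5 nM biotinylated Fc-PD-1 in 25 mM Hepes pH 7.4, 150 mM NaCl, 3.4 mM EDTA, 0.005% Tween 20, 0.01% BSA, 60 min at 25 °C. Anti-His acceptor and streptavidin donor beads added; IC50 from four-parameter fit of signal loss.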

PD-L1 = molecular target: T2, PD-L1 (Homo sapiens, UniProt Q9NZQ7); assay: PD-L1/PD-L1 dimerization biochemical protein-protein interaction assay (ALPHA); format: binding; conditions: compound-induced PD-L1 dimerization, head prints '1 nM' (0.5 nM His-tagged PD-L1 and 0.5 nM FLAG-tagged PD-L1), read-out: AC50 PDL1 Dimer Alpha 1 nM
T2 construct: determine if they can specifically dimerize the extracellular domains of PD-L1
How it was run: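 ALPHA proximity assay of compound-induced dimerization of 0.5 nM His-tagged and 0.5 nM FLAG-tagged PD-L1 extracellular domains in Hepes pH 7.4 buffer, 2 h at 25 °C. Anti-His acceptor then anti-FLAG donor beads, 60 min each; AC50 from four-parameter fit.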

T2 sequence (Q9NZQ7 19-238 limits assumed): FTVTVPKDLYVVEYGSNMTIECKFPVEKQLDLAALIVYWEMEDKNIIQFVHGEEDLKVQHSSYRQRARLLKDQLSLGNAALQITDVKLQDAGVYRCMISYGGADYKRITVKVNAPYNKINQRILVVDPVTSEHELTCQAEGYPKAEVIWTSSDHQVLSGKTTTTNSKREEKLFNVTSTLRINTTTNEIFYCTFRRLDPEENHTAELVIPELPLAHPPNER
T2 sequence (Q9NZQ7 19-238 limits assumed): as above
Sequence of PD-1/PD-L1 (Q9NZQ7 19-238 limits assumed): as above
T1 sequence (Q9NZQ7 19-290): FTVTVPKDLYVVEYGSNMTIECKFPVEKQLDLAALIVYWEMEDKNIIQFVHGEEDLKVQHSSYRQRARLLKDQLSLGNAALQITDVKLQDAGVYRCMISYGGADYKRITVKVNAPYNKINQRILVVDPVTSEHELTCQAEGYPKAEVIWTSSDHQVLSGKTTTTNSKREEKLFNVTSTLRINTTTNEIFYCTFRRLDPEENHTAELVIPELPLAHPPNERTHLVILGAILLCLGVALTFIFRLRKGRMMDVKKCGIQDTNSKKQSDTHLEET

SMILES	EC50 (PD-1/PD-L1 interaction)	IC50 (PD-1/PD-L1)	AC50 (PD-L1)
COc1nc(O[C@H]2CCc3c(-c4cccc(-c5cnc(CN6CC7(C6)CN(C(C)=O)C7)c(OC)n5)c4Cl)cccc32)c(Cl)cc1CN1CC[C@@H](C(=O)O)C1 [Example 767]	57 nM	0.064 nM	75.7 nM
COc1nc(O[C@H]2CCc3c(-c4cccc(-c5cnc(CNC[C@@H]6CCC(=O)N6)c(OC)n5)c4Cl)cccc32)c(Cl)cc1CN1CC[C@@H](C(=O)O)C1 [Example 768]	33 nM	0.064 nM	47.4 nM
COc1nc(-c2cccc(-c3cccc4c3CC[C@@H]4Oc3nc(OC)c(CN4CC[C@@H](C(=O)O)C4)cc3Cl)c2Cl)ccc1CNC[C@@H]1CCC(=O)N1 [Example 769]	25 nM	0.064 nM	28.1 nM
CCOC(=O)[C@@H]1CCN(Cc2cc(Cl)c(O[C@H]3CCc4c(-c5cccc(-c6ccc(CN7CC8(C7)CN(C(C)=O)C8)cc6)c5Cl)cccc43)nc2OC)C1 [Example 770]	856 nM	0.418 nM	700 nM
COc1nc(O[C@H]2CCc3c(-c4cccc(-c5ccc(CN6CC7(C6)CN(C(C)=O)C7)cc5)c4Cl)cccc32)c(Cl)cc1CN1CC[C@@H](C(=O)O)C1 [Example 771]	130 nM	0.064 nM	45 nM
COc1nc(O[C@H]2CCc3c(-c4cccc(-c5ccc(CNCCO)cc5)c4Cl)cccc32)c(Cl)cc1CNCCO [Example 772]	≥ 50000 nM	0.552 nM	19.5 nM
COc1nc(O[C@H]2CCc3c(-c4cccc(-c5ccc(CN6CC7(CCC(=O)N7)C6)cc5)c4Cl)cccc32)c(Cl)cc1CN1CC2(CCC(=O)N2)C1 [Example 773]	2100 nM	0.638 nM	≥ 10000 nM
COc1nc(O[C@H]2CCc3c(-c4cccc(-c5ccc(C6=N[C@@H](C)CN6)c(OC)n5)c4Cl)cccc32)c(Br)cc1CN1CC[C@H](O)[C@H](F)C1 [Example 774]	463 nM	1.31 nM	2730 nM
COc1nc(O[C@H]2CCc3c(-c4cccc(-c5ccc(C6=NCCN6)c(OC)n5)c4Cl)cccc32)c(Br)cc1CN1CC2(C1)CN(C(C)=O)C2 [Example 775]	84 nM	0.276 nM	68 nM
CCOC(=O)[C@@H]1CCCCN1Cc1cc(Br)c(O[C@H]2CCc3c(-c4cccc(-c5ccc(C6=NCCN6)c(OC)n5)c4Cl)cccc32)nc1OC [Example 776]	1440 nM	8.31 nM	≥ 10000 nM
COc1cc(-c2cccc(-c3cccc4c3CC[C@@H]4Oc3ccc(CN[C@@](C)(CO)C(=O)O)c(OC)n3)c2Cl)ccc1C1=NCCN1 [Example 777]	179 nM	0.064 nM	45.8 nM
COc1nc(O[C@H]2CCc3c(-c4cccc(-c5ccc(C6=N[C@H](C)CN6)c(OC)n5)c4Cl)cccc32)ccc1CN[C@@](C)(CO)C(=O)O [Example 778]	212 nM	0.113 nM	259 nM
COc1nc(O[C@H]2CCc3c(-c4cccc(-c5ccc(C6=NCCN6)c(OC)n5)c4Cl)cccc32)c(Br)cc1CNC[C@@H]1CCC(=O)N1 [Example 779]	68 nM	0.353 nM	113 nM
COc1cc(-c2cccc(-c3cccc4c3CC[C@@H]4Oc3nc(OC)c(CN[C@@](C)(CO)C(=O)O)cc3Br)c2Cl)ccc1C1=NCCN1 [Example 780]	50 nM	0.064 nM	14.4 nM
COc1nc(O[C@H]2CCc3c(-c4cccc(-c5ccc(C6=N[C@@H](C)CN6)c(OC)n5)c4Cl)cccc32)c(Br)cc1CN[C@@](C)(CO)C(=O)O [Example 781]	34 nM	0.064 nM	23.3 nM
COc1nc(O[C@H]2CCc3c(-c4cccc(-c5ccc(C6=N[C@H](C)CN6)c(OC)n5)c4Cl)cccc32)c(Br)cc1CN[C@@](C)(CO)C(=O)O [Example 782]	38 nM	0.064 nM	23.1 nM

Results, then the compound that gave them:

EC50 (PD-1/PD-L1 interaction)	IC50 (PD-1/PD-L1)	AC50 (PD-L1)	SMILES
2990 nM	0.259 nM	823 nM	COc1nc(O[C@H]2CCc3c(-c4cccc(-c5ccc6c(c5)C[C@@H](N)C6)c4Cl)cccc32)ccc1CN[C@@](C)(CO)C(=O)O [Example 783]
182 nM	0.064 nM	28.9 nM	COc1nc(O[C@H]2CCc3c(-c4cccc(-c5ccc6c(c5)C[C@@H](N)C6)c4Cl)cccc32)c(Br)cc1CN[C@@](C)(CO)C(=O)O [Example 784]
66 nM	0.064 nM	16.1 nM	COc1nc(O[C@H]2CCc3c(-c4cccc(-c5ccc(C6=NCCN6)c(OC)n5)c4Cl)cccc32)c(Br)cc1CN1CCCC[C@H]1C(=O)O [Example 785]
86 nM	0.064 nM	12.2 nM	COc1nc(O[C@H]2CCc3c(-c4cccc(-c5ccc(C6=NCCN6)c(OC)n5)c4Cl)cccc32)c(Br)cc1CNC(C)(C)C(=O)O [Example 786]
58 nM	0.066 nM	35.4 nM	COc1nc(O[C@H]2CCc3c(-c4cccc(-c5ccc(C6=NCCN6)c(OC)n5)c4Cl)cccc32)c(Br)cc1CNC[C@@H](O)CC(=O)O [Example 787]
39 nM	0.064 nM	11.8 nM	COc1nc(O[C@H]2CCc3c(-c4cccc(-c5ccc(C6=NCCN6)c(OC)n5)c4Cl)cccc32)c(Br)cc1CN[C@](C)(CO)C(=O)O [Example 788]
58 nM	0.064 nM	17.9 nM	COc1nc(O[C@H]2CCc3c(-c4cccc(-c5ccc(C6=NCCN6)c(OC)n5)c4Cl)cccc32)c(Br)cc1CN[C@@](C)(CO)C(=O)O [Example 789]
84 nM	0.865 nM	75.7 nM	COc1nc(O[C@H]2CCc3c(-c4cccc(-c5ccc(CNC[C@@H]6CCC(=O)N6)c(F)c5)c4Cl)cccc32)c(Br)cc1CNC[C@@H]1CCC(=O)N1 [Example 790]
175 nM	2.84 nM	206 nM	COc1nc(O[C@H]2CCc3c(-c4cccc(-c5ccc(CNC[C@@H]6CCC(=O)N6)c(Cl)c5)c4Cl)cccc32)c(Br)cc1CNC[C@@H]1CCC(=O)N1 [Example 791]
40 nM	0.534 nM	22.7 nM	COc1cc(-c2cccc(-c3cccc4c3CC[C@@H]4Oc3nc(OC)c(CNC[C@@H]4CCC(=O)N4)cc3Br)c2Cl)ccc1CNC[C@@H]1CCC(=O)N1 [Example 792]
1810 nM	1.75 nM	187 nM	COc1nc(O[C@H]2CCc3c(-c4cccc(-c5ccc6c(c5)C[C@@H](N)C6)c4Cl)cccc32)ccc1CNC[C@@H]1CCC(=O)N1 [Example 793]
794 nM	1.73 nM	94.2 nM	COc1nc(O[C@H]2CCc3c(-c4cccc(-c5ccc6c(c5)C[C@@H](N)C6)c4Cl)cccc32)c(Br)cc1CNC[C@@H]1CCC(=O)N1 [Example 794]
41 nM	0.064 nM	9.65 nM	C[C@@](CO)(NCc1cc(Cl)c(O[C@H]2CCc3c(-c4cccc(-c5ccc6c(c5)CC(N)C6)c4Cl)cccc32)nc1OCc1cncc(C#N)c1)C(=O)O (stereo partly drawn) [Example 795]
151 nM	0.762 nM	228 nM	COc1cc(O[C@H]2CCc3c(-c4cccc(-c5ccc(CN6CC7(CCC(=O)N7)C6)c(OC)n5)c4Cl)cccc32)c(Cl)cc1CNC[C@@H]1CCC(=O)N1 [Example 796]
30 nM	0.064 nM	41.4 nM	COc1nc(-c2cccc(-c3cccc4c3CC[C@@H]4Oc3nc(OCc4cc(C#N)cc(C#N)c4)c(CNC[C@@H](O)CC(=O)O)cc3Cl)c2Cl)ccc1CNC[C@@H]1CCC(=O)N1 [Example 797]
167 nM	0.341 nM	150 nM	COc1cc(-c2cccc(-c3cccc4c3CC[C@@H]4Oc3nc(OC)c(CNC[C@@H]4CCC(=O)N4)cc3Cl)c2Cl)nc(Cl)c1CNC[C@@H]1CCC(=O)N1 [Example 799]
246 nM	1.29 nM	537 nM	COc1nc(-c2cc(F)cc(-c3cccc4c3CC[C@@H]4Oc3ccc(CNC[C@@H]4CCC(=O)N4)c(OCc4cncc(C#N)c4)n3)c2Cl)ccc1CNC[C@@H]1CCC(=O)N1 [Example 800]
≥ 50000 nM	9.69 nM	≥ 10000 nM	N#Cc1cncc(COc2cc(O[C@H]3CCc4c(-c5cccc(-c6ccc7sc(CNC[C@@H]8CCC(=O)N8)nc7c6)c5Cl)cccc43)c(Cl)cc2CNC[C@@H]2CCC(=O)N2)c1 [Example 801]
177 nM	0.084 nM	55.5 nM	N#Cc1cncc(COc2cc(O[C@H]3CCc4c(-c5cccc(-c6nc7ccc(CNC[C@@H]8CCC(=O)N8)cn7n6)c5Cl)cccc43)c(Cl)cc2CNC[C@@H]2CCC(=O)N2)c1 [Example 802]
49 nM	0.064 nM	11.7 nM	N#Cc1cncc(COc2nc(O[C@H]3CCc4c(-c5cccc(-c6nc7ccc(CNC[C@@H](O)CC(=O)O)cn7n6)c5Cl)cccc43)c(Cl)cc2CNC[C@@H](O)CC(=O)O)c1 [Example 803]
